In PubChem BioAssay (NCI):
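How tested: cells in 96-well plates exposed to compound for 48 hours at five concentrations. GI50 marks 50% less growth. Definition used: TGI = concentration required for complete inhibition of growth.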

What was measured:
Assay in all cases: growth of human tumour cells (NCI), 48 h
KM12 colon = system: KM12 colon
SNB-75 CNS = system: SNB-75 CNS
SF-295 CNS = system: SF-295 CNS
SK-MEL-5 melanoma = system: SK-MEL-5 melanoma
CAKI-1 renal = system: CAKI-1 renal
OVCAR-8 ovarian = system: OVCAR-8 ovarian
SN12C renal = system: SN12C renal
SW-620 colon = system: SW-620 colon
COLO 205 colon = system: COLO 205 colon
NCI/ADR-RES ovarian = system: NCI/ADR-RES ovarian

Row | Compound | TGI (KM12 colon) [µM] | TGI (SNB-75 CNS) [µM] | TGI (SF-295 CNS) [µM] | TGI (SK-MEL-5 melanoma) [µM] | TGI (CAKI-1 renal) [µM] | TGI (OVCAR-8 ovarian) [µM] | TGI (SN12C renal) [µM] | TGI (SW-620 colon) [µM] | TGI (COLO 205 colon) [µM] | GI50 (KM12 colon) [µM] | GI50 (COLO 205 colon) [µM] | GI50 (SF-295 CNS) [µM] | GI50 (SK-MEL-5 melanoma) [µM] | GI50 (CAKI-1 renal) [µM] | GI50 (OVCAR-8 ovarian) [µM] | GI50 (SN12C renal) [µM] | GI50 (SW-620 colon) [µM] | GI50 (NCI/ADR-RES ovarian) [µM] | TGI (NCI/ADR-RES ovarian) [µM]
1 | N#CCCN(CCC#N)c1ccc(/C=C2\N=C(CN3C(=O)c4ccccc4C3=O)OC2=O)cc1 | > 100 | > 100 | > 100 | > 100 | > 100 | > 100 | > 100 | > 100 |  |  |  |  |  |  |  |  |  |  | 
2 | CC(=O)c1ccc(NC(=O)/C(Cc2ccccn2)=N/NC(=O)C[N+](C)(C)C)cc1 | > 100 | > 100 | > 100 | > 100 | > 100 | > 100 | > 100 | > 100 | > 100 |  |  |  |  |  |  |  |  |  | 
3 | CC(C)=[CH][Sb]([Br])([CH]=C(C)C)([CH]=C(C)C)[CH]=C(C)C | 87.9 |  | 53.4 | 24.3 | > 100 | > 100 | > 100 | > 100 | 5.89 | 3.63 | 1.93 | 17.3 | 3.82 | 46.1 | 23 | 24.7 | 26.4 |  | 
4 | Cc1cccc(C(C)(C)C)c1NC(=O)CCc1n[nH]c(=S)o1 | > 100 | > 100 | > 100 | > 100 | > 100 | > 100 | > 100 | 34.1 | 47.6 |  |  |  |  |  |  |  |  |  | 
5 | O=C1C2=C(CC3C(C2)C3(Br)Br)C(=O)C2=C1CC1C(C2)C1(Br)Br (stereo not drawn) | > 100 | > 100 | > 100 | > 100 | > 100 | > 100 | > 100 |  | > 100 |  |  |  |  |  |  |  |  |  | 
6 | CSc1ccc(/C=C2/C[N+](C)(C)C/C(=C/c3ccc(SC)cc3)C2=O)cc1 | 15.9 | 62.4 | 65 |  |  |  | 21.2 | 28.1 | 17.8 |  |  |  |  |  |  |  |  |  | 
7 | NCCCNCCSSCCCCS(=O)O |  | > 100 | > 100 | 32.7 | > 100 | > 100 | > 100 | > 100 | 35.7 |  |  |  |  |  |  |  |  |  | 
8 | COc1cc(Cc2cc(OC)c(OC)c(OC)c2)ccc1O | > 100 | 28.6 | 28.6 | > 100 | > 100 | > 100 | > 100 | > 100 | > 100 |  |  |  |  |  |  |  |  |  | 
9 | COc1cc(C(=O)O[C@H](C(N)=O)[C@]2(C)CO2)c2ccccc2c1 | 32.4 |  | 37.9 | 22 | 39.8 | 25.3 |  | > 100 | 39.7 | 15.6 | 16.6 | 20.4 | 7.52 | 20.6 | 5.87 |  | 18.8 | 12.3 | 30.3
10 | CCN(CC)C(=O)C/C(C)=N/NC(=O)c1ccncc1 | > 100 | > 100 | > 100 | > 100 |  | > 100 |  | > 100 | > 100 |  |  |  |  |  |  |  |  |  | 
11 | CCOC(=O)NC(=O)c1cn(CCCOC(=O)NCCCCCCNC(=O)OCCCn2c(=O)c(C(=O)NC(=O)OCC)cn(C)c2=O)c(=O)n(C)c1=O | > 100 | 93.9 |  |  | > 100 | > 100 | > 100 | > 100 | > 100 |  |  |  |  |  |  |  |  |  | 
